Source: patent US20110166191A1, “3-(2-amino-ethyl)-5-(3-cyclohexyl-propylidene)-thiazolidine-2,4-dione and its derivatives as multiple signaling pathway inhibitors and for the treatment of cancer” (priority 2010, published 2011)

What was measured:
Test in all cases: In vitro kinase screening
Assay type in all cases: biochemical
PKGa = target: T1, PKGa (Homo sapiens, UniProt Q13976); details: 10 μM concentration
T1 construct: Caliper Life Sciences
Method: (§1) Formula II [3-(2-aminoethyl)-5-(3-cyclohexylpropylidene)thiazolidine-2,4-dione] was screened against a panel of kinases at 10 μM concentration by Caliper Life Sciences according to their established protocol.

CAMK2 = details: CAMK2, 10 μM concentration
Method: as §1

c-TAK1 = target: T2, c-TAK1 (Homo sapiens, UniProt P27448); details: c-TAK1, 10 μM concentration
T2 construct: Caliper Life Sciences (screening service)
Method: as §1

INSR = target: T3, INSR (Homo sapiens, UniProt P06213); details: 10 μM concentration
T3 construct: Caliper Life Sciences (screening service)
Method: as §1

AMPK = details: 10 μM concentration
Method: as §1

LCK = target: T4, LCK (Homo sapiens, UniProt P06239); details: 10 μM concentration
T4 construct: Caliper Life Sciences
Method: as §1

LYN = target: T5, LYN (Homo sapiens, UniProt P07948); details: 10 μM concentration
T5 construct: Caliper Life Sciences
Method: as §1

MSK1 = target: T6, MSK1 (Homo sapiens, UniProt O75582); details: MSK1, 10 μM concentration
T6 construct: Caliper Life Sciences
Method: as §1

p70S6K = target: T7, p70S6K (Homo sapiens, UniProt P23443); details: 10 μM concentration
T7 construct: Caliper Life Sciences
Method: as §1

MEK1 = target: T8, MEK1 (Homo sapiens, UniProt Q02750); details: MEK1, 10 μM concentration
T8 construct: Caliper Life Sciences
Method: as §1

FYN = target: T9, FYN (Homo sapiens, UniProt P06241); details: 10 μM concentration
T9 construct: Caliper Life Sciences (screening service)
Method: as §1

Erk1 = target: T10, Erk1 (Homo sapiens, UniProt P27361); details: Erk1, 10 μM concentration
T10 construct: Caliper Life Sciences (screening service)
T10 sequence (P27361 whole entry): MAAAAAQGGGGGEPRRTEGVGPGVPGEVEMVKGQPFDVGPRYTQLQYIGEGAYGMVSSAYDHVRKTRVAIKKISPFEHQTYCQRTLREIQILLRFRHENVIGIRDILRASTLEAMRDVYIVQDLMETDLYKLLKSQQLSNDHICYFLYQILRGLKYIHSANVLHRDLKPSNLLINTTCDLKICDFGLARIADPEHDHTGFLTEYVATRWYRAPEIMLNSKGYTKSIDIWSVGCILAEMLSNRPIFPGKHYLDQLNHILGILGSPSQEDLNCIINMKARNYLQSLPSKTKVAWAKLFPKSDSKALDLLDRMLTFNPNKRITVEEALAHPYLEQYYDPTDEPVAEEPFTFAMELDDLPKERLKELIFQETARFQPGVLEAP
Method: as §1

PKCb2 = target: T11, PKCb2 (Homo sapiens, UniProt P05771); details: PKCb2, 10 μM concentration
T11 construct: Caliper Life Sciences
Method: as §1

CHK1 = target: T12, CHK1 (Homo sapiens, UniProt O14757); details: CHK1, 10 μM concentration
T12 construct: Caliper Life Sciences (screening service)
Method: as §1

IGF1R = target: T13, IGF1R (Homo sapiens, UniProt P08069); details: 10 μM concentration
T13 construct: Caliper Life Sciences (screening service)
Method: as §1

HGK = target: T14, HGK (Homo sapiens, UniProt O95819); details: 10 μM concentration
T14 construct: Caliper Life Sciences (screening service)
Method: as §1

MET = target: T15, MET (Homo sapiens, UniProt P08581); details: 10 μM concentration
T15 construct: Caliper Life Sciences
T15 sequence (P08581 25-1390): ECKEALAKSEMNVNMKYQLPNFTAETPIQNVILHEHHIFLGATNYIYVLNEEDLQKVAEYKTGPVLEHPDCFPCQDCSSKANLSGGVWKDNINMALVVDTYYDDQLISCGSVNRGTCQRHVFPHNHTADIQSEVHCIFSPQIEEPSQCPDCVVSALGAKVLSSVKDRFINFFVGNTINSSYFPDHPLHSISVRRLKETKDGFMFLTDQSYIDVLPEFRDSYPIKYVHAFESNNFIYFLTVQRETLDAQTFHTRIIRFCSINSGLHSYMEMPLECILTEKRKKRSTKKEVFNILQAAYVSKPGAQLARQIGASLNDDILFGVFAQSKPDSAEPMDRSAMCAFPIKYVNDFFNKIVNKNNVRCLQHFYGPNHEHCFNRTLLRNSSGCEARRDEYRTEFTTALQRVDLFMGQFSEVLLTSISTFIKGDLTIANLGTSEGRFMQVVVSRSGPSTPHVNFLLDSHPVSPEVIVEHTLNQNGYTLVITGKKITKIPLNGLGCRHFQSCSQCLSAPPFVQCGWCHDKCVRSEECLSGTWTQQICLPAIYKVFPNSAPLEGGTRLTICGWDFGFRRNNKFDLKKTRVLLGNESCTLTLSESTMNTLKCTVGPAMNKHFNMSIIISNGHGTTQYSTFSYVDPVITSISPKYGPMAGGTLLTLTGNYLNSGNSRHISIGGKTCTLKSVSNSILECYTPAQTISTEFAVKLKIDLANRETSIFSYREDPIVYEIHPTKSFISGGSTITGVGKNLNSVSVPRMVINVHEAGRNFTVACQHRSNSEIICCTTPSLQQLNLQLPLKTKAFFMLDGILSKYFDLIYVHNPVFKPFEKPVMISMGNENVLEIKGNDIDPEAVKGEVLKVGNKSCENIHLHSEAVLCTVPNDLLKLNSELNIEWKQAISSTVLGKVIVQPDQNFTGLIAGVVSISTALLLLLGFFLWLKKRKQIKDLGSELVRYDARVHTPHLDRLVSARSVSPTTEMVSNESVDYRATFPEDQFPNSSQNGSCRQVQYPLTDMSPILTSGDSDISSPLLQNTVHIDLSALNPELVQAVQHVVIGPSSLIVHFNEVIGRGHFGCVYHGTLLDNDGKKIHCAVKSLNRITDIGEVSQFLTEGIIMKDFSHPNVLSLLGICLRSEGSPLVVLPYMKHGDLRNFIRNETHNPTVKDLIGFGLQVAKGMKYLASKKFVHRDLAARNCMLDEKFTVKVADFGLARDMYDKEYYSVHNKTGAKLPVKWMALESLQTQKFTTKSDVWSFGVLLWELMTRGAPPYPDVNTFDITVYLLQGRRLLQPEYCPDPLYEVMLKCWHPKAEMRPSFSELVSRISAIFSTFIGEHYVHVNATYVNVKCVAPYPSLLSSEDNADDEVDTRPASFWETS
Method: as §1

ABL = target: T16, ABL (Homo sapiens, UniProt P00519); details: 10 μM concentration
T16 construct: Caliper Life Sciences (screening service)
T16 sequence (P00519 whole entry): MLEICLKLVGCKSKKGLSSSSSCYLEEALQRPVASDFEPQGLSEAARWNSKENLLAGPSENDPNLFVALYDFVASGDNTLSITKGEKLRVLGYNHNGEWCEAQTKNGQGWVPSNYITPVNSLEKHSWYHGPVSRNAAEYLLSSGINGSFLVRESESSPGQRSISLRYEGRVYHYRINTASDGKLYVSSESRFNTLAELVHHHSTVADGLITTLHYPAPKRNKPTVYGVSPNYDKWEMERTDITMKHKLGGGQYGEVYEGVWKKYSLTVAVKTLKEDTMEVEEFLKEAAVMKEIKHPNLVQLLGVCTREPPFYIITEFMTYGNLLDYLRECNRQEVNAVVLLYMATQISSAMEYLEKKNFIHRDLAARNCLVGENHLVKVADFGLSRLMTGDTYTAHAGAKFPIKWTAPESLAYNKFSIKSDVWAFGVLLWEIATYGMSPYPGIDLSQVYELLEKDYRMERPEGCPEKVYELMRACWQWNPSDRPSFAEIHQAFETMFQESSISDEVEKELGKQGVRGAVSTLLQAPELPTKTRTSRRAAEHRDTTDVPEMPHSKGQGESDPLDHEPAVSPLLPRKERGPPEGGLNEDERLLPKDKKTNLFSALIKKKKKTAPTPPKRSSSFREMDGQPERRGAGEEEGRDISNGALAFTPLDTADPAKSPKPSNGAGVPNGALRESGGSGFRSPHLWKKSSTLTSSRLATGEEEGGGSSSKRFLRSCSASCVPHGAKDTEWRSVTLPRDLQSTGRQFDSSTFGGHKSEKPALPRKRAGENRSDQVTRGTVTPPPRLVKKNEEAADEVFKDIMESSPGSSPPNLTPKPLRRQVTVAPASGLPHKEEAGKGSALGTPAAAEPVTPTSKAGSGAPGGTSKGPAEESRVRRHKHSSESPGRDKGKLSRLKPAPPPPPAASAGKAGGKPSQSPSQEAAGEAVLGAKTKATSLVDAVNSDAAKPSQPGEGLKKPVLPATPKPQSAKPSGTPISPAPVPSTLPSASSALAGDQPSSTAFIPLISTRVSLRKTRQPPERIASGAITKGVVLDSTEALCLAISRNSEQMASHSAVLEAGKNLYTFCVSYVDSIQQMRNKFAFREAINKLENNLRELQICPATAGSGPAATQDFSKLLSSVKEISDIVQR
Method: as §1

CAMk4 = target: T17, CAMk4 (Homo sapiens, UniProt Q16566); details: CAMk4, 10 μM concentration
T17 construct: Caliper Life Sciences (screening service)
Method: as §1

SGK1 = target: T18, SGK1 (Homo sapiens, UniProt O00141); details: SGK1, 10 μM concentration
T18 construct: Caliper Life Sciences
T18 sequence (O00141 whole entry, species assumed): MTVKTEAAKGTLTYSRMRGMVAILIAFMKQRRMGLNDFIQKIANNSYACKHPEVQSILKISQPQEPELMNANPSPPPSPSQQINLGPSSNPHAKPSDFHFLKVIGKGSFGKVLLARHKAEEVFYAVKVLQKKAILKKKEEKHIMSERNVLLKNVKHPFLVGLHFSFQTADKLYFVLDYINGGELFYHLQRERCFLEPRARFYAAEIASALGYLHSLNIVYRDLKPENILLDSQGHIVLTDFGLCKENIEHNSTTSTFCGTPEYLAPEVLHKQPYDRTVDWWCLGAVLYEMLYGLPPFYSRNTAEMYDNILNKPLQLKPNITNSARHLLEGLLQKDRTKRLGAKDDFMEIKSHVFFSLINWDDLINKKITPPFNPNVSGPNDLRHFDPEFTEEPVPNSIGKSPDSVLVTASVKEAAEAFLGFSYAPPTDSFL
Method: as §1

FLT3 = target: T19, FLT3 (Homo sapiens, UniProt P36888); details: FLT3, 10 μM concentration
T19 construct: Caliper Life Sciences (screening service)
T19 sequence (P36888 27-993): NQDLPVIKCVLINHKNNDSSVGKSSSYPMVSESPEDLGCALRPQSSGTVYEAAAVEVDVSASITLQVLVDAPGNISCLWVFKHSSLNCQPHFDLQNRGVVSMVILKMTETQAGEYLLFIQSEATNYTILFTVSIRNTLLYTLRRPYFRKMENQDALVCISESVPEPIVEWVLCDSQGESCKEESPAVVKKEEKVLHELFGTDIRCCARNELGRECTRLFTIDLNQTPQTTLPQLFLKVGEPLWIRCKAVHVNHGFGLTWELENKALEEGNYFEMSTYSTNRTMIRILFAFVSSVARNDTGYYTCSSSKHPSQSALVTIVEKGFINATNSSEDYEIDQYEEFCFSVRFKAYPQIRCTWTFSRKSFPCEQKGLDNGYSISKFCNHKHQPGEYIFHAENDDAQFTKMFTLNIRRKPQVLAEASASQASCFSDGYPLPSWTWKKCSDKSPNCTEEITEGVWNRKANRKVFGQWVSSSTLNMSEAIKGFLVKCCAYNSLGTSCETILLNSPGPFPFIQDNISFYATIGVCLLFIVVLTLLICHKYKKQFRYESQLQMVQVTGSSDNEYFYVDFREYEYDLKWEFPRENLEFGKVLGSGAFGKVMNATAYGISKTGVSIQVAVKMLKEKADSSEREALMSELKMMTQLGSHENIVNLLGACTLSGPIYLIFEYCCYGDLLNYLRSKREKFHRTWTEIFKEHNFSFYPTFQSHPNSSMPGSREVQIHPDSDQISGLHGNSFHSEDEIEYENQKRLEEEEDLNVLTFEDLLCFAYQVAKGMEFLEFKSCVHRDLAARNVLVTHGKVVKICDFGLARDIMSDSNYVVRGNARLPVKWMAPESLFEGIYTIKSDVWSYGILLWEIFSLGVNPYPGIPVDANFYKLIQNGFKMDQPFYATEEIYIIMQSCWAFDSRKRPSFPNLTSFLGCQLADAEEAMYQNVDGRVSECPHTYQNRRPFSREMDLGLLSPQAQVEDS
Method: as §1

p38a = target: T20, p38a (Homo sapiens, UniProt Q16539); details: 10 μM concentration
T20 construct: Caliper Life Sciences
Method: as §1

PKD2 = target: T21, PKD2 (Homo sapiens, UniProt Q9BZL6); details: PKD2, 10 μM concentration
T21 construct: Caliper Life Sciences
Method: as §1

KDR = target: T22, KDR (Homo sapiens, UniProt P35968); details: 10 μM concentration
T22 construct: Caliper Life Sciences
Method: as §1

AKT2 = target: T23, AKT2 (Homo sapiens, UniProt P31751); details: AKT2, 10 μM concentration
T23 construct: Caliper Life Sciences (screening service)
Method: as §1

MARK1 = target: T24, MARK1 (Homo sapiens, UniProt Q9P0L2); details: MARK1, 10 μM concentration
T24 construct: Caliper Life Sciences
T24 sequence (Q9P0L2 whole entry, species assumed): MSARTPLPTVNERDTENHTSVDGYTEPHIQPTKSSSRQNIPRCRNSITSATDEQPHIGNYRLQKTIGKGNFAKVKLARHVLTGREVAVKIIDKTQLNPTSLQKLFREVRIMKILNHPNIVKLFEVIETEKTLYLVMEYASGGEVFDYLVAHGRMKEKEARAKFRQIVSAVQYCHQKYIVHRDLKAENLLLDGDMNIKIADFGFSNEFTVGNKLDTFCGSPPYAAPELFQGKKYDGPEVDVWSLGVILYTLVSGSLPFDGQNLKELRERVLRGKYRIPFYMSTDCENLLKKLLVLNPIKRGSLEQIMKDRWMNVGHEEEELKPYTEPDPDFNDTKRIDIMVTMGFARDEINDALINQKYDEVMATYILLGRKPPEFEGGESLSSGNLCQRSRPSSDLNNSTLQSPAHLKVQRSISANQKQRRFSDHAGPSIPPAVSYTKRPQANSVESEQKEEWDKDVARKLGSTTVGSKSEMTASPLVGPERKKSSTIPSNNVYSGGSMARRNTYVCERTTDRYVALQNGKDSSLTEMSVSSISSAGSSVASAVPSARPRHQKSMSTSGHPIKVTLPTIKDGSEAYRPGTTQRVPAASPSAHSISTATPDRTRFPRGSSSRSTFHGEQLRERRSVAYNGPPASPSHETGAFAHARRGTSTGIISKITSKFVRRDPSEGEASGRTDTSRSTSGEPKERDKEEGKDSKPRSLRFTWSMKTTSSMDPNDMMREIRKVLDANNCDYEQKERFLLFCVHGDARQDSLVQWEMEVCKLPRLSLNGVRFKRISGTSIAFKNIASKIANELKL
Method: as §1

Erk2 = target: T25, Erk2 (Homo sapiens, UniProt P28482); details: Erk2, 10 μM concentration
T25 construct: Caliper Life Sciences (screening service)
Method: as §1

MST2 = target: T26, MST2 (Homo sapiens, UniProt Q13188); details: MST2, 10 μM concentration
T26 construct: Caliper Life Sciences
Method: as §1

AKT1 = target: T27, AKT1 (Homo sapiens, UniProt P31749); details: AKT1, 10 μM concentration
T27 construct: Caliper Life Sciences (screening service)
Method: as §1

IRAK4 = target: T28, IRAK4 (Homo sapiens, UniProt Q9NWZ3); details: IRAK4, 10 μM concentration
T28 construct: Caliper Life Sciences (screening service)
Method: as §1

Ck1d = target: T29, Ck1d (Homo sapiens, UniProt P48730); details: 10 μM concentration
T29 construct: Caliper Life Sciences (screening service)
Method: as §1

SYK = target: T30, SYK (Homo sapiens, UniProt P43405); details: 10 μM concentration
T30 construct: purchased Caliper Life Sciences
Method: as §1

PIM2 = target: T31, PIM2 (Homo sapiens, UniProt Q9P1W9); details: PIM2, 10 μM concentration
T31 construct: Caliper Life Sciences
Method: as §1

MAPKAPK2 = target: T32, MAPKAPK2 (Homo sapiens, UniProt P49137); details: MAPKAPK2, 10 μM concentration
T32 construct: Caliper Life Sciences
Method: as §1

PDK1 = target: T33, PDK1 (Homo sapiens, UniProt O15530); details: PDK1, 10 μM concentration
T33 construct: Caliper Life Sciences
Method: as §1

SRC = target: T34, SRC (Homo sapiens, UniProt P12931); details: 10 μM concentration
T34 construct: purchased Caliper Life Sciences
Method: as §1

BTK = target: T35, BTK (Homo sapiens, UniProt Q06187); details: 10 μM concentration
T35 construct: Caliper Life Sciences (screening service)
Method: as §1

NCCN1C(=O)S/C(=C\CCC2CCCCC2)C1=O [Example 4, 3-(2-aminoethyl)-5-(3-cyclohexylpropylidene)thiazolidine-2,4-dione]
inhibition at 10 µM (PKGa): -2%
% Inhibition (CAMK2): 60%
inhibition at 10 µM (c-TAK1): 6%
inhibition at 10 µM (INSR): -2%
% Inhibition (AMPK): 76%
inhibition at 10 µM (LCK): 4%
inhibition at 10 µM (LYN): 0%
inhibition at 10 µM (MSK1): 6%
inhibition at 10 µM (p70S6K): 5%
inhibition at 10 µM (MEK1): 69%
inhibition at 10 µM (FYN): 0%
inhibition at 10 µM (Erk1): 21%
inhibition at 10 µM (PKCb2): 16%
inhibition at 10 µM (CHK1): 11%
inhibition at 10 µM (IGF1R): -1%
inhibition at 10 µM (HGK): -1%
inhibition at 10 µM (MET): -1%
inhibition at 10 µM (ABL): 6%
inhibition at 10 µM (CAMk4): 71%
inhibition at 10 µM (SGK1): 14%
inhibition at 10 µM (FLT3): 38%
inhibition at 10 µM (p38a): -13%
inhibition at 10 µM (PKD2): 0%
inhibition at 10 µM (KDR): -28%
inhibition at 10 µM (AKT2): 8%
inhibition at 10 µM (MARK1): 0%
inhibition at 10 µM (Erk2): 11%
inhibition at 10 µM (MST2): -3%
inhibition at 10 µM (AKT1): 3%
inhibition at 10 µM (IRAK4): -1%
inhibition at 10 µM (Ck1d): -5%
inhibition at 10 µM (SYK): 9%
inhibition at 10 µM (PIM2): 38%
inhibition at 10 µM (MAPKAPK2): 3%
inhibition at 10 µM (PDK1): -2%
inhibition at 10 µM (SRC): 2%
inhibition at 10 µM (BTK): 12%
